Key:
Ammi majus [1] = assay: Post-emergence herbicidal activity against Amni maius assessed as injury at 50 g/ha applied at 15 days post-sowing measured after 15 days relative to control; type: functional
Ipomoea purpurea [2] = assay: Post-emergence herbicidal activity against Ipomoea purpurea (common morning-glory) assessed as injury at 150 g/ha applied at 15 days post-sowing measured after 15 days relative to control; type: functional
Galium aparine [3] = assay: Post-emergence herbicidal activity against Galium aparine assessed as injury at 150 g/ha applied at 15 days post-sowing measured after 15 days relative to control; type: functional
Matricaria chamomilla [4] = assay: Post-emergence herbicidal activity against Matricaria chamomilla assessed as injury at 150 g/ha applied at 15 days post-sowing measured after 15 days relative to control; type: functional
Amaranthus retroflexus [5] = assay: Pre-emergence herbicidal activity against Amaranthus retroflexus assessed as injury at 50 g/ha applied at 24 hr post-sowing measured after 28 days relative to control; type: functional
Xanthium strumarium [6] = assay: Pre-emergence herbicidal activity against Xanthium strumarium (cocklebur) assessed as injury at 150 g/ha applied at 24 hr post-sowing measured after 28 days relative to control; type: functional
Phalaris arundinacea = assay: Post-emergence herbicidal activity against Phalaris arundinacea assessed as injury at 50 g/ha applied at 15 days post-sowing measured after 15 days relative to control; type: functional
Echinochloa crus-galli = assay: Post-emergence herbicidal activity against Echinochloa crus-galli (barnyard grass) assessed as injury at 50 g/ha applied at 15 days post-sowing measured after 15 days relative to control; type: functional
Solanum nigrum [7] = assay: Pre-emergence herbicidal activity against Solanum nigrum (black nightshade) assessed as injury at 50 g/ha applied at 24 hr post-sowing measured after 28 days relative to control; type: functional
Alopecurus myosuroides = assay: Post-emergence herbicidal activity against Alopecurus myosuroides assessed as injury at 15 g/ha applied at 15 days post-sowing measured after 15 days relative to control; type: functional
Xanthium strumarium [8] = assay: Pre-emergence herbicidal activity against Xanthium strumarium (cocklebur) assessed as injury at 50 g/ha applied at 24 hr post-sowing measured after 28 days relative to control; type: functional
Ammi majus [9] = assay: Pre-emergence herbicidal activity against Amni maius assessed as injury at 150 g/ha applied at 24 hr post-sowing measured after 28 days relative to control; type: functional
Solanum nigrum [10] = assay: Post-emergence herbicidal activity against Solanum nigrum (black nightshade) assessed as injury at 5 g/ha applied at 15 days post-sowing measured after 15 days relative to control; type: functional
Matricaria chamomilla [11] = assay: Post-emergence herbicidal activity against Matricaria chamomilla assessed as injury at 50 g/ha applied at 15 days post-sowing measured after 15 days relative to control; type: functional
Sorghum bicolor [12] = assay: Post-emergence herbicidal activity against Sorghum bicolor assessed as injury at 150 g/ha applied at 15 days post-sowing measured after 15 days relative to control; type: functional
Solanum nigrum [13] = assay: Post-emergence herbicidal activity against Solanum nigrum (black nightshade) assessed as injury at 15 g/ha applied at 15 days post-sowing measured after 15 days relative to control; type: functional
Calystegia sepium [14] = assay: Post-emergence herbicidal activity against Calystegia sepium assessed as injury at 15 g/ha applied at 15 days post-sowing measured after 15 days relative to control; type: functional
Calystegia sepium [15] = assay: Pre-emergence herbicidal activity against Calystegia sepium assessed as injury at 150 g/ha applied at 24 hr post-sowing measured after 28 days relative to control; type: functional
Digitaria sanguinalis [16] = assay: Post-emergence herbicidal activity against Digitaria sanguinalis (hairy crabgrass) assessed as injury at 50 g/ha applied at 15 days post-sowing measured after 15 days relative to control; type: functional
Sorghum bicolor [17] = assay: Post-emergence herbicidal activity against Sorghum bicolor assessed as injury at 15 g/ha applied at 15 days post-sowing measured after 15 days relative to control; type: functional
Capsella bursa-pastoris = assay: Post-emergence herbicidal activity against Capsella bursa-pastoris assessed as injury at 50 g/ha applied at 15 days post-sowing measured after 15 days relative to control; type: functional
Chenopodium album = assay: Pre-emergence herbicidal activity against Chenopodium album assessed as injury at 150 g/ha applied at 24 hr post-sowing measured after 28 days relative to control; type: functional
Panicum dichotomiflorum = assay: Post-emergence herbicidal activity against Panicum dichotomiflorum assessed as injury at 50 g/ha applied at 15 days post-sowing measured after 15 days relative to control; type: functional
Calystegia sepium [18] = assay: Post-emergence herbicidal activity against Calystegia sepium assessed as injury at 150 g/ha applied at 15 days post-sowing measured after 15 days relative to control; type: functional
Sida spinosa = assay: Post-emergence herbicidal activity against Sida spinosa assessed as injury at 150 g/ha applied at 15 days post-sowing measured after 15 days relative to control; type: functional
Setaria viridis = assay: Pre-emergence herbicidal activity against Setaria viridis (green foxtail) assessed as injury at 150 g/ha applied at 24 hr post-sowing measured after 28 days relative to control; type: functional
Papaver rhoeas = assay: Pre-emergence herbicidal activity against Papaver rhoeas assessed as injury at 50 g/ha applied at 24 hr post-sowing measured after 28 days relative to control; type: functional
Amaranthus retroflexus [19] = assay: Post-emergence herbicidal activity against Amaranthus retroflexus assessed as injury at 150 g/ha applied at 15 days post-sowing measured after 15 days relative to control; type: functional
Ipomoea purpurea [20] = assay: Post-emergence herbicidal activity against Ipomoea purpurea (common morning-glory) assessed as injury at 50 g/ha applied at 15 days post-sowing measured after 15 days relative to control; type: functional
Geranium dissectum = assay: Post-emergence herbicidal activity against Geranium dissectum assessed as injury at 50 g/ha applied at 15 days post-sowing measured after 15 days relative to control; type: functional
Glycine max = assay: Phytotoxicity against Glycine max (soybean) assessed as injury at 150 g/ha applied as post-emergent treatment at 15 days post-sowing measured after 15 days relative to control; type: organism-based; details: in vivo, other, 360 h
Digitaria sanguinalis [21] = assay: Pre-emergence herbicidal activity against Digitaria sanguinalis (hairy crabgrass) assessed as injury at 150 g/ha applied at 24 hr post-sowing measured after 28 days relative to control; type: functional
Galium aparine [22] = assay: Post-emergence herbicidal activity against Galium aparine assessed as injury at 50 g/ha applied at 15 days post-sowing measured after 15 days relative to control; type: functional
Brassica napus = assay: Phytotoxicity against Brassica napus (oilseed rape) assessed as injury at 150 g/ha applied as pre-emergent treatment at 24 hr post-sowing measured after 28 days relative to control; type: organism-based; details: in vivo, other, 672 h
Abutilon theophrasti = assay: Post-emergence herbicidal activity against Abutilon theophrasti (velvetleaf) assessed as injury at 150 g/ha applied at 15 days post-sowing measured after 15 days relative to control; type: functional
Ammi majus [23] = assay: Post-emergence herbicidal activity against Amni maius assessed as injury at 15 g/ha applied at 15 days post-sowing measured after 15 days relative to control; type: functional
Sorghum bicolor [24] = assay: Post-emergence herbicidal activity against Sorghum bicolor assessed as injury at 50 g/ha applied at 15 days post-sowing measured after 15 days relative to control; type: functional

C#CCOc1cc(-n2nc(C(C)(C)C)sc2=O)c(Cl)cc1Cl
Activity (Ammi majus [1]): 0%
Activity (Ipomoea purpurea [2]): 90%
Activity (Galium aparine [3]): 50%
Activity (Matricaria chamomilla [4]): 10%
Activity (Amaranthus retroflexus [5]): 50%
Activity (Xanthium strumarium [6]): 0%
Activity (Phalaris arundinacea): 30%
Activity (Echinochloa crus-galli): 0%
Activity (Solanum nigrum [7]): 30%
Activity (Alopecurus myosuroides): 0%
Activity (Xanthium strumarium [8]): 0%
Activity (Ammi majus [9]): 0%
Activity (Solanum nigrum [10]): 0%
Activity (Matricaria chamomilla [11]): 0%
Activity (Sorghum bicolor [12]): 10%
Activity (Solanum nigrum [13]): 10%
Activity (Calystegia sepium [14]): 50%
Activity (Calystegia sepium [15]): 0%
Activity (Digitaria sanguinalis [16]): 50%
Activity (Sorghum bicolor [17]): 10%
Activity (Capsella bursa-pastoris): 10%
Activity (Chenopodium album): 90%
Activity (Panicum dichotomiflorum): 50%
Activity (Calystegia sepium [18]): 90%
Activity (Sida spinosa): 70%
Activity (Setaria viridis): 70%
Activity (Papaver rhoeas): 70%
Activity (Amaranthus retroflexus [19]): 90%
Activity (Ipomoea purpurea [20]): 90%
Activity (Geranium dissectum): 50%
Activity (Glycine max): 30%
Activity (Digitaria sanguinalis [21]): 90%
Activity (Galium aparine [22]): 30%
Activity (Brassica napus): 0%
Activity (Abutilon theophrasti): 90%
Activity (Ammi majus [23]): 0%
Activity (Sorghum bicolor [24]): 0%
